Source: patent publication US10882838B2, “Cannabinergic compounds and uses thereof” (Northeastern University, priority 2012, dated 2021)
Like-named read-outs stand apart in the source and are kept apart here.

Experiments:
CB1 receptor = CB1 receptor (Rattus norvegicus (Rat), UniProt P20272); assay: rCB1 competition-equilibrium binding with [3H]CP-55,940, rat brain membranes
Description: Frozen rat brains (CB1 source) are obtained from Pel-Freeze Biologicals (Rogers, Ak.) and stored at −80° C. until use. Membranes are prepared according to the method described by Dodd et al. and used in our laboratory as reported.
(§1) All the cannabinoids discussed in this invention are tested for their ability to bind to CB1 and CB2 receptors using membranes from rat brain or HEK293 cells expressing either mCB2 or hCB2, respectively via competition-equilibrium binding using [^3H]CP-55,940. Results are analyzed using nonlinear regression to determine ligand IC50 (Prism by GraphPad Software, Inc.), and Ki values are calculated from the IC50. IC50 and Ki values are determined from at least three independent experiments.

mCB2 receptor = mCB2 receptor (Mus musculus (Mouse), UniProt P47936); assay: mCB2 competition-equilibrium binding with [3H]CP-55,940, membranes of HEK293 cells expressing mCB2
Description: (§2) HEK293 cells expressing hCB1 or hCB2 or mCB2 receptor are used for membrane preparations according to Abadji et al. The resulting pellet is resuspended in 10 mM Tris-chloride, pH 7.4, with 5 mM MgCl2 and 2 mM EDTA (TME), rapidly frozen in liquid nitrogen and stored at −80° C. for no longer than two months. Protein content is assayed by using the Bio-Rad protein assay according to the manufacturer's protocol.
as §1

hCB2 receptor = hCB2 receptor (Homo sapiens (Human), UniProt P34972); assay: hCB2 competition-equilibrium binding with [3H]CP-55,940, membranes of HEK293 cells expressing hCB2
Description: as §2, §1

[1] = rat brain membranes, [3H]CP-55,940, read-out: rCB1 Ki
[2] = HEK293 cells expressing mCB2, [3H]CP-55,940, read-out: mCB2 Ki
[3] = HEK293 cells expressing hCB2, [3H]CP-55,940, read-out: hCB2 Ki

| SMILES | Ki (CB1 receptor; [1]) | Ki (mCB2 receptor; [2]) | Ki (hCB2 receptor; [3]) | Ki (CB1 receptor) | Ki (mCB2 receptor) | Ki (hCB2 receptor) |
| --- | --- | --- | --- | --- | --- | --- |
| CC1=CC[C@@H]2[C@@H](C1)c1c(O)cc(C(C)(C)C(=O)OCCCN=[N+]=[N-])cc1OC2(C)C [Compound 1.9, 3-azidopropyl-2-((6aR,10aR)-6a,7,10,10a-tetrahydro-1-hydroxy-6,6,9-trimethyl-6H-benzo[c]chromen-3-yl)-2-methylpropanoate] | 1 nM | 0.7 nM | 0.8 nM | – | – | – |
| CC1=CC[C@@H]2[C@@H](C1)c1c(O)cc(C(C)C(=O)O)cc1OC2(C)C (stereo partly drawn) [Compound 1.11, 2-((6aR,10aR)-1-hydroxy-6,6,9-trimethyl-6a,7,10,10a-tetrahydro-6H-benzo[c]chromen-3-yl)propanoic acid] | > 10000 nM | > 10000 nM | > 10000 nM | – | – | – |
| CC1=CC[C@@H]2[C@@H](C1)c1c(O)cc([C@@H](C)C(=O)O)cc1OC2(C)C [Compound 1.13, (R)-2-((6aR,10aR)-1-hydroxy-6,6,9-trimethyl-6a,7,10,10a-tetrahydro-6H-benzo[c]chromen-3-yl)propanoic Acid] | > 10000 nM | > 10000 nM | > 10000 nM | – | – | – |
| CC1=CC[C@@H]2[C@@H](C1)c1c(O)cc([C@H](C)C(=O)O)cc1OC2(C)C [Compound 1.15, (S)-2-((6aR,10aR)-1-hydroxy-6,6,9-trimethyl-6a,7,10,10a-tetrahydro-6H-benzo[c]chromen-3-yl)propanoic Acid] | > 10000 nM | > 10000 nM | > 10000 nM | – | – | – |
| CC1=CC[C@@H]2[C@@H](C1)c1c(O)cc(C3(C(=O)O)CCC3)cc1OC2(C)C [Compound 1.17, 1-((6aR,10aR)-1-hydroxy-6,6,9-trimethyl-6a,7,10,10a-tetrahydro-6H-benzo[c]chromen-3-yl)cyclobutanecarboxylic Acid] | > 10000 nM | > 10000 nM | > 10000 nM | – | – | – |
| CC1=CC[C@@H]2[C@@H](C1)c1c(O)cc(C3(C(=O)OCCCCN=[N+]=[N-])CCC3)cc1OC2(C)C [Compound 1.21, 4-azidobutyl 1-((6aR,10aR)-1-hydroxy-6,6,9-trimethyl-6a,7,10,10a-tetrahydro-6H-benzo[c]chromen-3-yl)cyclo Butanecarboxylate] | 0.9 nM | 1.9 nM | 2.7 nM | – | – | – |
| CCCCCCC(O)(CC(=O)O)c1cc(O)c2c(c1)OC(C)(C)[C@@H]1CC=C(C)C[C@@H]21 (stereo partly drawn) [Compound 1.22, 3-hydroxy-3-((6aR,10aR)-1-hydroxy-6,6,9-trimethyl-6a,7,10,10a-tetrahydro-6H-benzo[c]chromen-3-yl)nonanoic Acid] | 600 nM | 1000 nM | 1000 nM | – | – | – |
| CCCCCCC1(c2cc(O)c3c(c2)OC(C)(C)[C@@H]2CC=C(C)C[C@@H]32)CC(=O)O1 (stereo partly drawn) [Compound 1.23, 4-hexyl-4-((6aR,10aR)-1-hydroxy-6,6,9-trimethyl-6a,7,10,10a-tetrahydro-6H-benzo[c]chromen-3-yl)oxetan-2-one] | – | – | – | 15.9 nM | 40.7 nM | 55.5 nM |
| CC1=CC[C@@H]2[C@@H](C1)c1c(O)cc(CC(=O)O)cc1OC2(C)C [Compound 1.26, 2-((6aR,10aR)-6a,7,10,10a-tetrahydro-1-hydroxy-6,6,9-trimethyl-6H-benzo[c]chromen-3-yl)acetic Acid] | > 10000 nM | > 10000 nM | > 10000 nM | – | – | – |
| CCCCCNC(=O)C(C)(C)c1cc(O)c2c(c1)OC(C)(C)[C@@H]1CC=C(C)C[C@@H]21 [Compound 1.31, 2-((6aR,10aR)-6a,7,10,10a-tetrahydro-1-hydroxy-6,6,9-trimethyl-6H-benzo[c]chromen-3-yl)-2-methyl-N-pentylpropanamide] | 6.3 nM | 9.2 nM | 2.8 nM | – | – | – |
| CCOC(=O)C(C)(C)c1cc(O)c2c(c1)OC(C)(C)[C@@H]1CC=C(C)C[C@@H]21 [Compound 1.35, Ethyl-2-((6aR,10aR)-6a,7,10,10a-tetrahydro-1-hydroxy-6,6,9-trimethyl-6H-benzo[c]chromen-3-yl)-2-methylpropanoate] | 2.7 nM | 0.5 nM | 1.5 nM | – | – | – |
| CC1=CC[C@@H]2[C@@H](C1)c1c(O)cc(C(C)(C)C(=O)OCCBr)cc1OC2(C)C [Compound 1.36, 2-bromoethyl-2-((6aR,10aR)-6a,7,10,10a-tetrahydro-1-hydroxy-6,6,9-trimethyl-6H-benzo [c]chromen-3-yl)-2-methylpropanoate] | 2.9 nM | 3.2 nM | 7.7 nM | – | – | – |
| CC(C)(C(=O)O)c1cc(O)c2c(c1)OC(C)(C)[C@@H]1CC=C(CO)C[C@@H]21 [Compound 2.1, 2-((6aR, 10aR)-6a,7,10,10a-tetrahydro-1-hydroxy-9-(hydroxymethyl)-6,6-dimethyl-6H-benzo[c]chromen-3-yl)-2-methylpropanoic Acid] | > 10000 nM | > 10000 nM | > 10000 nM | – | – | – |
| CC1(C)Oc2cc(CC(=O)O)cc(O)c2[C@@H]2CC(=O)CC[C@H]21 [Compound 3.1, 2-((6aR,10aR)-6a,7,8,9,10,10a-hexahydro-1-hydroxy-6,6-dimethyl-9-oxo-6H-benzo[c]chromen-3-yl)acetic acid] | > 10000 nM | > 10000 nM | > 10000 nM | – | – | – |
| CCCCOC(=O)Cc1cc(O)c2c(c1)OC(C)(C)[C@@H]1CCC(=O)C[C@@H]21 [Compound 3.2, Butyl-2-((6aR,10aR)-6a,7,8,9,10,10a-hexahydro-1-hydroxy-6,6-dimethyl-9-oxo-6H-benzo[c]chromen-3-yl)acetate] | 1000 nM | 1000 nM | 1000 nM | – | – | – |
| CC(C)(C(=O)O)c1cc(O)c2c(c1)OC(C)(C)[C@@H]1CCC(=O)C[C@@H]21 [Compound 3.3, 2-((6aR,10aR)-6a,7,8,9,10,10a-hexahydro-1-hydroxy-6,6-dimethyl-9-oxo-6H-benzo[c]chromen-3-yl)-2-methylpropanoic Acid] | > 10000 nM | > 10000 nM | > 10000 nM | – | – | – |
| CCCCOC(=O)C(C)(C)c1cc(O)c2c(c1)OC(C)(C)[C@@H]1CCC(=O)C[C@@H]21 [Compound 3.4, Butyl-2-((6aR,10aR)-6a,7,8,9,10,10a-hexahydro-1-hydroxy-6,6-dimethyl-9-oxo-6H-benzo[c]chromen-3-yl)-2-methylpropanoate] | 2.2 nM | 7.2 nM | 6.2 nM | – | – | – |
| CC(C)(C(=O)O)c1cc(O)c2c(c1)OC(C)(C)[C@@H]1CC[C@@H](O)C[C@@H]21 [Compound 3.5, 2-((6aR,9R,10aR)-6a,7,8,9,10,10a-hexahydro-1,9-dihydroxy-6,6-dimethyl-6H-benzo[c]chromen-3-yl)-2-methylpropanoic Acid] | > 10000 nM | > 10000 nM | > 10000 nM | – | – | – |
| CC(C)(C(=O)O)c1cc(O)c2c(c1)OC(C)(C)[C@@H]1CC[C@H](O)C[C@@H]21 [Compound 3.7, 2-((6aR,9S,10aR)-6a,7,8,9,10,10a-hexahydro-1,9-dihydroxy-6,6-dimethyl-6H-benzo[c]chromen-3-yl)-2-methylpropanoic Acid] | > 10000 nM | > 10000 nM | > 10000 nM | – | – | – |
| CCCCOC(=O)C(C)(C)c1cc(O)c2c(c1)OC(C)(C)[C@@H]1CC[C@@H](CO)C[C@H]21 [Compound 3.9, Butyl 2-((6aR,9R,10aS)-1-hydroxy-9-(hydroxymethyl)-6,6-dimethyl-6a,7,8,9,10,10a-hexahydro-6H-benzo[c]chromen-3-yl)-2-methylpropanoate] | 2.4 nM | 4.3 nM | 6.5 nM | – | – | – |
| CCOC(=O)C(C)(C)c1cc(OC)c(-c2cccc(C#N)c2)c(OC)c1 [Compound 4.1, Ethyl 2-(3′-cyano-2,6-dimethoxybiphenyl-4-yl)-2-methylpropanoate] | > 1000 nM | > 1000 nM | > 1000 nM | – | – | – |
| CCOC(=O)C(C)(C)c1cc(OC)c(-c2cc(C)cc(C)c2)c(OC)c1 [Compound 4.3, Ethyl 2-(2,6-dimethoxy-3′,5′-dimethylbiphenyl-4-yl)-2-methylpropanoate] | 1000 nM | 1000 nM | 1000 nM | – | – | – |
| CCOC(=O)C(C)(C)c1cc(O)c(-c2cc(C)cc(C)c2)c(O)c1 [Compound 4.4, Ethyl 2-(2,6-dihydroxy-3′,5′-dimethylbiphenyl-4-yl)-2-methylpropanoate] | 941 nM | 36 nM | 48.8 nM | – | – | – |
| CCOC(=O)C(C)(C)c1cc(O)c(-c2cc(C)cc(C)c2)c(OC)c1 [Compound 4.5, Ethyl 2-(2-hydroxy-6-methoxy-3′,5′-dimethylbiphenyl-4-yl)-2-methylpropanoate] | 1000 nM | 108 nM | 375 nM | – | – | – |
| CCOC(=O)C(C)(C)c1cc(OC)c(-c2cc(Cl)cc(Cl)c2)c(OC)c1 [Compound 4.6, Ethyl 2-(3′,5′-dichloro-2,6-dimethoxybiphenyl-4-yl)-2-methylpropanoate] | 1000 nM | 1000 nM | 1000 nM | – | – | – |
